The values below come from ChEMBL document CHEMBL1201862, “PubChem BioAssay data set” (2004).

Active and inactive are the calls of the source. Some results are limits rather than exact numbers.

For assay [1], the target named is T1, Protein RecA (Mycobacterium tuberculosis, UniProt P9WHJ3).
T1 sequence (P9WHJ3 whole entry): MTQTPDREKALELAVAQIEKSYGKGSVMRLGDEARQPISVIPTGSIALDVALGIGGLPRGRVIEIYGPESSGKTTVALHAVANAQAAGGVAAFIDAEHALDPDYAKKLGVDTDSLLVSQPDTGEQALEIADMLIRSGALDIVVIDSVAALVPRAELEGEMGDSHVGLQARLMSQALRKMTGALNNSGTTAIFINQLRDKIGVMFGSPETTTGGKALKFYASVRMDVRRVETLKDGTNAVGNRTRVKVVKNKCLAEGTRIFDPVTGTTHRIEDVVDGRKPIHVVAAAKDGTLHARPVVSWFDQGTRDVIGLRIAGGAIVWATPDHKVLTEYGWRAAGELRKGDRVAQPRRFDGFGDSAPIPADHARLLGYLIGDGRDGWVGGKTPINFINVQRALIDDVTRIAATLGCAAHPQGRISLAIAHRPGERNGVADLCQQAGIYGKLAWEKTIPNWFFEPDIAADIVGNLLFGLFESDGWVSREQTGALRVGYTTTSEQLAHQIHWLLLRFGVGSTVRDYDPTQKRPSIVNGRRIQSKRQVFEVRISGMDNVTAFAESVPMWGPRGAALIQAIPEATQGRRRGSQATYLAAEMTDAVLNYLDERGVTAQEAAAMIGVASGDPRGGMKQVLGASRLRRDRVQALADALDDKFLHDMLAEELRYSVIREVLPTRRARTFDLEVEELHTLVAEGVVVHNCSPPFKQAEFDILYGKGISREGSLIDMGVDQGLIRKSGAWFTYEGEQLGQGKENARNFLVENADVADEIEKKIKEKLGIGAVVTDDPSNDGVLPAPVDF
The assay can be described thus: Fluorescence Cell-Free Homogeneous Dose Retest to Identify Inhibitors of RecA-Intein Splicing Activity. [Related pubchem assays (depositor defined):AID2097, AID2223, AID489010, AID492950]. It is filed as functional.

For assay [2], the target named is T2, Replicative DNA helicase DnaB (Mycobacterium tuberculosis, UniProt P9WMR3).
T2 sequence (P9WMR3 whole entry): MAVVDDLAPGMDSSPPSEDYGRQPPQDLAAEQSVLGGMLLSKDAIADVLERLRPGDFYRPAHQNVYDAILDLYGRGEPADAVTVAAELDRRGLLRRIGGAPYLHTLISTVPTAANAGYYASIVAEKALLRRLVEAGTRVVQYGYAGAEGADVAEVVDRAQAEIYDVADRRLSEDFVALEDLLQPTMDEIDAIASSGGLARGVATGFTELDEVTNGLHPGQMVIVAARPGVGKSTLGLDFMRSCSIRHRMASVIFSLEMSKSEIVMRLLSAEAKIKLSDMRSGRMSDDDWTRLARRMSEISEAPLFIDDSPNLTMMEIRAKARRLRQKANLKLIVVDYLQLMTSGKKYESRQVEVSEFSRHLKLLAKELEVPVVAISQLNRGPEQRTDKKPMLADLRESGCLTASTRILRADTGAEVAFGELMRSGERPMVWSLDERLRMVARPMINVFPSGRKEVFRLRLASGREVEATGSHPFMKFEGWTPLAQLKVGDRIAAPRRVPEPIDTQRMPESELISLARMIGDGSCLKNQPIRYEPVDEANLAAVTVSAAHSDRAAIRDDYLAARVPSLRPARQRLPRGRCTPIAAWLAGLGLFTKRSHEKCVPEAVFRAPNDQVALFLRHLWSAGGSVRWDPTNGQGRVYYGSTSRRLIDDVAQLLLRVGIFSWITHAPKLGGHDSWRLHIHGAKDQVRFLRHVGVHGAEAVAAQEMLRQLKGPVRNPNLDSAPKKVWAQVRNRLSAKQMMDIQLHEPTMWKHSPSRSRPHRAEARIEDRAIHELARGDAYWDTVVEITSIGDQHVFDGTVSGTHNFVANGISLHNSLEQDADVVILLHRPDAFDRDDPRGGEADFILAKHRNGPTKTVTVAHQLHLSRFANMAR
Nature of the assay: DnaB intein splicing inhibitors, dose response, biochemical, cell-free fluorescence (AID 449749). It is filed as functional.

Assay [3] has as its target T3, Rac GTPase-activating protein 1 (Homo sapiens, UniProt Q9H0H5).
T3 sequence (Q9H0H5 whole entry): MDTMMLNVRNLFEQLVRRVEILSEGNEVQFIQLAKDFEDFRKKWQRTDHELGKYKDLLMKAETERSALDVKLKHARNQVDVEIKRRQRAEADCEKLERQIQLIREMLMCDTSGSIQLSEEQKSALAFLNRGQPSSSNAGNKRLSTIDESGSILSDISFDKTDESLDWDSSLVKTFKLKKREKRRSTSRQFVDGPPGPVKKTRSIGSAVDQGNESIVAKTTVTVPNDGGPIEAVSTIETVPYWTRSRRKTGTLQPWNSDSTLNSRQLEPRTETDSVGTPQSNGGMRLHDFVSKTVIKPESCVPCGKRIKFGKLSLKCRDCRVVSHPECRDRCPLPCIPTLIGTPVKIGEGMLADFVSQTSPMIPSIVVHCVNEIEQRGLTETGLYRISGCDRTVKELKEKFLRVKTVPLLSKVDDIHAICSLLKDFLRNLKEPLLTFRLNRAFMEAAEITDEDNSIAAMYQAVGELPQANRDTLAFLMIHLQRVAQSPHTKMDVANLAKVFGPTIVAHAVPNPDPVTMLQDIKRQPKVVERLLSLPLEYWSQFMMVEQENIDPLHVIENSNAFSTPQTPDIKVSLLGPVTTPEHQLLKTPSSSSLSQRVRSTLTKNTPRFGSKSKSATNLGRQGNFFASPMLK
Nature of the assay: MgcRacGAP GTPase-activating activity inhibitors, confirmation, biochemical, ADP Hunter fluorescence, primary and confirmatory (AID 624330). The assay is classed as functional.

Assay [4] concerns the target FAD-linked sulfhydryl oxidase ALR (Homo sapiens, UniProt P55789). Nature of the assay: inhibitors of human ALR sulfhydryl oxidase, dose response, biochemical, H2O2 detection, luminescence, cherry-pick (AID 493248).
Assay [5] has as its system INS1. The assay can be described thus: beta cell apoptosis inhibitors, cytokine rescue, dose response, luminescence, retest (AID 449756).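 Note: cell death triggered by IL-1 beta plus TNF-alpha plus IFN-gamma mixture; protective hits raise ATP signal compared with cytokine alone wells.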 It is filed as functional, cell-based. The following applies: Rattus norvegicus.
Assay [6] is described as follows: Luminescence Cell-Based Dose Retest to Confirm Inhibitors of Cancer Stem Cells. [Related pubchem assays (depositor defined):AID2717, AID2721]. It is filed as functional. The following applies: Homo sapiens.
The test system of assay [7] is BJ. Nature of the assay: cytotoxicity toward BJ-TERT-LT-ST fibroblasts, dose response, cell-based, RAS-independent, luminescence (AID 1935).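 Note: BJ fibroblasts immortalized with TERT plus LT and ST oncogenes.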 The assay is classed as functional. Conditions: Homo sapiens.
For assay [8], the system named is BJ. The assay can be described thus: cells. It is filed as functional, cell-based. Conditions: Homo sapiens.
Assay [9] deals with BJ. The assay can be described thus: cytotoxicity toward BJ-TERT fibroblasts, dose response, cell-based, RAS-independent, luminescence (AID 1933). It is filed as functional. The following applies: Homo sapiens.
The nature of assay [10]: cytotoxicity toward DRD oncogenic fibroblasts, dose response, cell-based, non-viral oncogenic, luminescence (AID 1934). The following applies: Homo sapiens. It is filed as functional.
Assay [11] can be described thus: HEp-2 cell cytotoxicity, dose response, cytotoxicity control for RSV inhibitor project, HTS (AID 2410). The assay is classed as functional. The following applies: human respiratory syncytial virus.
Assay [12] concerns H9c2. The assay can be described thus: cells. It is filed as functional, cell-based. Conditions: Rattus norvegicus, H9c2, Myocardium.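 Note: confirmatory concentration-response retest of ultra-high-throughput screening hits for modulation of myocardial damage; cell death induced by hydrogen peroxide oxidative stress; compound pretreatment for 60 min then peroxide exposure for 2 h; potency is for protecting the cells against peroxide damage rather than for killing them.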
Assay [13] deals with Large T antigen (Simian virus 40, UniProt P03070). The assay is classed as functional, Betapolyomavirus macacae.
The target in assay [14] is T4, Zinc finger protein mex-5 (Caenorhabditis elegans, UniProt Q9XUB2).
T4 sequence (Q9XUB2 whole entry): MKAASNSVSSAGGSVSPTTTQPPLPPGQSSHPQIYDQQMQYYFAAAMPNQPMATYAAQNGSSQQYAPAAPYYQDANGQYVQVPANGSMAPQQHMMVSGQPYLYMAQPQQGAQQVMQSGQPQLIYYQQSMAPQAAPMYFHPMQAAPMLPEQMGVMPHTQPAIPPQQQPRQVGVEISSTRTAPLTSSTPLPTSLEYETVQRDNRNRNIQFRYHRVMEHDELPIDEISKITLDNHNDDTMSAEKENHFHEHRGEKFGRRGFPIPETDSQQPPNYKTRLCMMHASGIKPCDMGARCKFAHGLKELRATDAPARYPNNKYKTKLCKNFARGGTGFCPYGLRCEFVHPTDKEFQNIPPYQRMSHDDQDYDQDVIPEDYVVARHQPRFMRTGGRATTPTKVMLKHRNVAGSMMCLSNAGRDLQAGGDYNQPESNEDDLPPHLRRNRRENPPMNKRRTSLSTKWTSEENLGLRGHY
Nature of the assay: MEX-5/TCR-2 RNA interaction inhibitors, dose response, biochemical, C. elegans, fluorescence polarization (AID 1960).

For assay [15], the target named is T5, RNA-binding protein pos-1 (Caenorhabditis elegans, UniProt G5EF15).
T5 sequence (G5EF15 whole entry): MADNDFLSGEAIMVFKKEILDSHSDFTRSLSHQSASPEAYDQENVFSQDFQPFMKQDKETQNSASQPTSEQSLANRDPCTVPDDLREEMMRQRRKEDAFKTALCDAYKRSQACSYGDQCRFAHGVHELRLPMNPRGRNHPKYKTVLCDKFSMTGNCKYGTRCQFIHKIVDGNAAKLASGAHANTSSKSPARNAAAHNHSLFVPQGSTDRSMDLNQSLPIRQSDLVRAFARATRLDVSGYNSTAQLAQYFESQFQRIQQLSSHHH
The assay can be described thus: inhibitors of POS-1/mex-3 RNA binding, dose response, biochemical, fluorescence polarization (AID 1964).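 Note: purified POS-1 fused to maltose binding protein made in E. coli; potency of compounds blocking POS-1 binding to fluorescent RNA.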

FAD-linked sulfhydryl oxidase ALR, sequence (P55789 whole entry): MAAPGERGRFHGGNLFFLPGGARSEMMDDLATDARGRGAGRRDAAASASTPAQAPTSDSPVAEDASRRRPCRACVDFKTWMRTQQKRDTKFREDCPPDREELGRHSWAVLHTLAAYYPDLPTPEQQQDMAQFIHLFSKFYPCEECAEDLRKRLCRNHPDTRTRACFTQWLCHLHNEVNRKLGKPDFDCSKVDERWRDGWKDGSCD
Large T antigen, sequence (P03070 whole entry): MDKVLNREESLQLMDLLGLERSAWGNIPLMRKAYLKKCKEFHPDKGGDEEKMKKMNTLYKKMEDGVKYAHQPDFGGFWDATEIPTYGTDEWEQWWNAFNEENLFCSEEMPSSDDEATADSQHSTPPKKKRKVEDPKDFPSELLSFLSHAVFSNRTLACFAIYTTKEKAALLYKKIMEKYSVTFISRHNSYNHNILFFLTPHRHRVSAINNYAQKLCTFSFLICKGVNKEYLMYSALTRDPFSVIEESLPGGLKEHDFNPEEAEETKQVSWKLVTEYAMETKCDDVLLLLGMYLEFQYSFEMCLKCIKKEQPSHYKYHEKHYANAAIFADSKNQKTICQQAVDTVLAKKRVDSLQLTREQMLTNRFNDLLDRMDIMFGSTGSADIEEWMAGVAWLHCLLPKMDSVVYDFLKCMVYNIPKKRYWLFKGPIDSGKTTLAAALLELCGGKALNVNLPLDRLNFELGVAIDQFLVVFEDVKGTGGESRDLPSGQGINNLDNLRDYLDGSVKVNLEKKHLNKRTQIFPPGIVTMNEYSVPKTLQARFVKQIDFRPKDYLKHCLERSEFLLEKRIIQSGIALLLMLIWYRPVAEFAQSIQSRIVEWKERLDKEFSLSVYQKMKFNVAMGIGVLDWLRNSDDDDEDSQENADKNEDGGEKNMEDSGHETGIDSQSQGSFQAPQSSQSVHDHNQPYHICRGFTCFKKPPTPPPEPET

`N#Cc1c(N)n(CCOC(=O)c2ccc(Cl)cc2)c2nc3ccccc3nc12`: the EC50 in assay [1] is 1.8 µM (active). In addition, the AC50 in [2] is 3.18 µM (active).
For the compound `C=CCn1c(SCC(=O)Nc2ccc(N(C)C)cc2)nnc1-c1cccc(C)c1`, the IC50 in assay [3] was 42.8 µM (active).
With `COc1ccc(-c2cc(-c3nnc(S)n3-c3ccccc3OC)[nH]n2)cc1`, the AC50 in assay [4] is 41.1 µM (active).
In the case of `O=C(C#Cc1ccccc1)Nc1cccc(F)c1`, the results for the AC50 in assay [5], in assay [6] and in [4] were 8.05 µM (active), 2.35 µM (active) and 2 µM (active), respectively.
Consider `O=C(c1[nH]nc2c1CCC2)N1CCCC(Nc2cccc(F)c2)C1` (centres undefined), for which the AC50 in assay [4] was 19.5 µM (active).
With `CSc1ccc(CN2CCC(N3CC(C)OC(C)C3)CC2)cc1` (centres undefined), in assay [3], the half-inhibitory concentration (IC50) was 72.4 µM (active).
Same read-out and setting: the value for `COc1cc(N=Nc2c(C)n(C)n(-c3ccccc3)c2=O)ccc1N` was 43.4 µM (active).
Turning to `COC(=O)N1CCc2c(sc(NC(=O)C3=COCCO3)c2C#N)C1`, the EC50 in [7] was 16.1 µM (active); in assay [8], 48.9 µM (active); in assay [9] it was 8.87 µM (inconclusive); in assay [10], 12.5 µM (active).
On to `COc1cccc(-c2ncc3ccccn23)c1`, for which, in [3], the IC50 was 136 µM (active). Moreover, in assay [11], the CC50 was 44.1 µM (active).
In the case of `COCc1n[nH]c2c1C(c1ccccc1OC)C(C#N)=C(N)O2` (centres undefined), the EC50 in [1] is 4.77 µM (active). Further, in assay [2], the AC50 is 22 µM (active).
As to `N#CCSc1nc2cc(C(=O)N3CCC(C(N)=O)CC3)ccc2c2nc3ccccc3n12`, in assay [12], the IC50 was > 79 µM (inactive).
With `NS(=O)(=O)c1ccc(CCNC(=O)CN2CCN(c3ccccc3O)CC2)cc1`, the AC50 in assay [4] was 3.94 µM (active).
Take `COc1cc(-c2nc3cnccn3c2NC(C)(C)CC(C)(C)C)ccc1O`: the AC50 in [4] was 4.22 µM (active).
Take `O=c1[nH]n(Cc2ccccc2)c(=O)c2ccccc12`: the IC50 in [12] was > 79 µM (inactive).
`CCOc1cc(C2C(C#N)=C(N)Oc3[nH]nc(CC)c32)ccc1OCCN1CCOCC1` (centres undefined): the EC50 in assay [1] is 7.2 µM (active). For the same compound, the AC50 in assay [2] was 27.2 µM (active).
As for `O=C1c2cc([N+](=O)[O-])ccc2-c2ncccc21`, the EC50 is 11.1 µM (active) in [1]; > 150 µM (not active) in assay [7]; > 150 µM (not active) in [8]; 24.4 µM (active) in assay [9]; > 150 µM (not active) in assay [10]. For the same compound, the AC50 in assay [2] was 36.7 µM (active).
Take `O=C(CN(c1ccc2c(c1)OCCO2)S(=O)(=O)c1ccccc1)Nc1ccc2c(c1)OCO2`: the IC50 in assay [12] was > 79 µM (inactive).
With `Cn1c(=O)c2c(nc(NCc3ccc4c(c3)OCO4)n2C)n(C)c1=O`, in assay [12], the IC50 is 36.1 µM (inactive).
With `COC(=O)c1ccc(CSc2nc3ccccc3c(=O)n2Cc2ccco2)o1`, the AC50 in assay [4] is 4.51 µM (active).
Regarding `Cc1cc(-c2cc(C)c(N)cc2C)c(C)cc1N`, the IC50 in [3] is 101 µM (active).
On the same count and under the same terms, with `COc1ccc(NC2CCCN(C(=O)CCc3cccc(F)c3)C2)cc1` (centres undefined) the figure was 74.6 µM (active).
As to `O=C(COC(=O)Cc1nnc(O)c2ccccc12)Nc1c(Br)cc([N+](=O)[O-])cc1Br`, the IC50 in assay [12] is > 79 µM (inactive).
For `CCN1C(=O)[C@H]2[C@H]3CN=C(SCc4ccc(C#N)cc4)N3[C@@](Cc3ccccc3)(C(=O)OC)[C@H]2C1=O`, in assay [12], the IC50 is > 79 µM (inactive).
The same measure, in the same setting: with `CCOC(=O)c1cc(-c2ccc(/C=N\n3cnnc3)o2)ccc1Cl` the figure was > 79 µM (inactive).
For the compound `Cc1cc(-c2nnc(S)n2/N=C/c2ccc(Cl)c([N+](=O)[O-])c2)[nH]n1`, the half-maximal activity concentration (AC50) in assay [4] is 3.45 µM (active).
For the compound `COc1cc(/C=N/Nc2nc(O)nnc2C)ccc1O`, in [13], the IC50 was 6.41 µM (active). Moreover, the EC50 in assay [14] is 31.1 µM (active); in [15], 56.8 µM (active). Moreover, in [4], the AC50 is 4.13 µM (active).
For `COc1ccc(NC(=O)NS(=O)(=O)c2ccc(C)cc2)cc1OC`, the IC50 in assay [3] is 36 µM (active).
